{
  "source": "PubChem BioAssay (NCI)",
  "assay_in_all_cases": "growth of human tumour cells (NCI), 48 h",
  "key": {"HOP-62 NSCLC": {"tested_on": "HOP-62 NSCLC"}, "OVCAR-5 ovarian": {"tested_on": "OVCAR-5 ovarian"}, "RPMI-8226 leukemia": {"tested_on": "RPMI-8226 leukemia"}, "HCC-2998 colon": {"tested_on": "HCC-2998 colon"}, "NCI-H522 lung": {"tested_on": "NCI-H522 lung"}, "OVCAR-3 ovarian": {"tested_on": "OVCAR-3 ovarian"}, "IGROV1 ovarian": {"tested_on": "IGROV1 ovarian"}, "MDA-MB-435": {"tested_on": "MDA-MB-435"}, "KM12 colon": {"tested_on": "KM12 colon"}, "CCRF-CEM leukemia": {"tested_on": "CCRF-CEM leukemia"}, "OVCAR-8 ovarian": {"tested_on": "OVCAR-8 ovarian"}, "HOP-92 NSCLC": {"tested_on": "HOP-92 NSCLC"}, "NCI-H226 lung": {"tested_on": "NCI-H226 lung"}, "LOX IMVI melanoma": {"tested_on": "LOX IMVI melanoma"}, "UACC-62 melanoma": {"tested_on": "UACC-62 melanoma"}, "COLO 205 colon": {"tested_on": "COLO 205 colon"}, "OVCAR-4 ovarian": {"tested_on": "OVCAR-4 ovarian"}, "MCF7 breast": {"tested_on": "MCF7 breast"}, "MDA-MB-231 breast": {"tested_on": "MDA-MB-231 breast"}, "NCI-H460 lung": {"tested_on": "NCI-H460 lung"}, "EKVX NSCLC": {"tested_on": "EKVX NSCLC"}, "UACC-257 melanoma": {"tested_on": "UACC-257 melanoma"}, "HS 578T breast": {"tested_on": "HS 578T breast"}, "CAKI-1 renal": {"tested_on": "CAKI-1 renal"}, "A498 renal": {"tested_on": "A498 renal"}, "TK-10 renal": {"tested_on": "TK-10 renal"}, "NCI/ADR-RES ovarian": {"tested_on": "NCI/ADR-RES ovarian"}, "SK-OV-3 ovarian": {"tested_on": "SK-OV-3 ovarian"}},
  "note": "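Test compounds were applied to cells in 96-well plates for 48 hours at 5 doses. At the GI50, growth is halved. Definition used: TGI = concentration required for complete inhibition of growth.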",
  "data": [
    {"smiles": "COC1/C=C/OC2(C)Oc3c(C)c(O)c4c(O)c(c(/C=N/N(c5ccccc5)c5ccccc5)c(O)c4c3C2=O)NC(=O)C(C)=C/C=C/C(C)C(O)C(C)C(O)C(C)C(OC(C)=O)C1C", "note": "(stereo unspecified)", "values": [
      {"measurement": "GI50", "setting": "HOP-62 NSCLC", "result": 3.41, "unit": "µM"},
      {"measurement": "TGI", "setting": "HOP-62 NSCLC", "result": 10.3, "unit": "µM"},
      {"measurement": "GI50", "setting": "OVCAR-5 ovarian", "result": 2.07, "unit": "µM"},
      {"measurement": "TGI", "setting": "OVCAR-5 ovarian", "result": 10.9, "unit": "µM"},
      {"measurement": "GI50", "setting": "RPMI-8226 leukemia", "result": 1.16, "unit": "µM"},
      {"measurement": "TGI", "setting": "RPMI-8226 leukemia", "result": 4.42, "unit": "µM"},
      {"measurement": "GI50", "setting": "HCC-2998 colon", "result": 1.71, "unit": "µM"},
      {"measurement": "TGI", "setting": "HCC-2998 colon", "result": 6.16, "unit": "µM"},
      {"measurement": "GI50", "setting": "NCI-H522 lung", "result": 0.983, "unit": "µM"},
      {"measurement": "TGI", "setting": "NCI-H522 lung", "result": 2.19, "unit": "µM"},
      {"measurement": "GI50", "setting": "OVCAR-3 ovarian", "result": 0.852, "unit": "µM"},
      {"measurement": "TGI", "setting": "OVCAR-3 ovarian", "result": 1.7, "unit": "µM"},
      {"measurement": "GI50", "setting": "IGROV1 ovarian", "result": 1.85, "unit": "µM"},
      {"measurement": "TGI", "setting": "IGROV1 ovarian", "result": 11.5, "unit": "µM"},
      {"measurement": "GI50", "setting": "MDA-MB-435", "result": 1.65, "unit": "µM"},
      {"measurement": "TGI", "setting": "MDA-MB-435", "result": 5.05, "unit": "µM"},
      {"measurement": "GI50", "setting": "KM12 colon", "result": 1.65, "unit": "µM"},
      {"measurement": "TGI", "setting": "KM12 colon", "result": 6.45, "unit": "µM"},
      {"measurement": "GI50", "setting": "CCRF-CEM leukemia", "result": 1.58, "unit": "µM"},
      {"measurement": "TGI", "setting": "CCRF-CEM leukemia", "result": 6.62, "unit": "µM"},
      {"measurement": "GI50", "setting": "OVCAR-8 ovarian", "result": 1.8, "unit": "µM"},
      {"measurement": "TGI", "setting": "OVCAR-8 ovarian", "result": 7.97, "unit": "µM"},
      {"measurement": "GI50", "setting": "HOP-92 NSCLC", "result": 0.867, "unit": "µM"},
      {"measurement": "TGI", "setting": "HOP-92 NSCLC", "result": 2.86, "unit": "µM"},
      {"measurement": "GI50", "setting": "NCI-H226 lung", "result": 4.23, "unit": "µM"},
      {"measurement": "TGI", "setting": "NCI-H226 lung", "result": 11.8, "unit": "µM"},
      {"measurement": "GI50", "setting": "LOX IMVI melanoma", "result": 1.04, "unit": "µM"},
      {"measurement": "TGI", "setting": "LOX IMVI melanoma", "result": 2.41, "unit": "µM"},
      {"measurement": "GI50", "setting": "UACC-62 melanoma", "result": 0.992, "unit": "µM"},
      {"measurement": "TGI", "setting": "UACC-62 melanoma", "result": 2.58, "unit": "µM"},
      {"measurement": "GI50", "setting": "COLO 205 colon", "result": 1.73, "unit": "µM"},
      {"measurement": "TGI", "setting": "COLO 205 colon", "result": 6.23, "unit": "µM"},
      {"measurement": "GI50", "setting": "OVCAR-4 ovarian", "result": 1.95, "unit": "µM"},
      {"measurement": "TGI", "setting": "OVCAR-4 ovarian", "result": 7.6, "unit": "µM"},
      {"measurement": "GI50", "setting": "MCF7 breast", "result": 1.62, "unit": "µM"},
      {"measurement": "TGI", "setting": "MCF7 breast", "result": 6.58, "unit": "µM"},
      {"measurement": "GI50", "setting": "MDA-MB-231 breast", "result": 1.38, "unit": "µM"},
      {"measurement": "TGI", "setting": "MDA-MB-231 breast", "result": 4.14, "unit": "µM"},
      {"measurement": "GI50", "setting": "NCI-H460 lung", "result": 1.52, "unit": "µM"},
      {"measurement": "TGI", "setting": "NCI-H460 lung", "result": 5.32, "unit": "µM"},
      {"measurement": "GI50", "setting": "EKVX NSCLC", "result": 2.78, "unit": "µM"},
      {"measurement": "TGI", "setting": "EKVX NSCLC", "result": 11.3, "unit": "µM"},
      {"measurement": "GI50", "setting": "UACC-257 melanoma", "result": 1.48, "unit": "µM"},
      {"measurement": "TGI", "setting": "UACC-257 melanoma", "result": 5.44, "unit": "µM"},
      {"measurement": "GI50", "setting": "HS 578T breast", "result": 1.19, "unit": "µM"},
      {"measurement": "TGI", "setting": "HS 578T breast", "result": 4.33, "unit": "µM"},
      {"measurement": "GI50", "setting": "CAKI-1 renal", "result": 2.42, "unit": "µM"},
      {"measurement": "TGI", "setting": "CAKI-1 renal", "result": 11.2, "unit": "µM"},
      {"measurement": "GI50", "setting": "A498 renal", "result": 1.63, "unit": "µM"},
      {"measurement": "TGI", "setting": "A498 renal", "result": 7.42, "unit": "µM"},
      {"measurement": "GI50", "setting": "TK-10 renal", "result": 1.8, "unit": "µM"},
      {"measurement": "TGI", "setting": "TK-10 renal", "result": 7.55, "unit": "µM"},
      {"measurement": "GI50", "setting": "NCI/ADR-RES ovarian", "result": 3.76, "unit": "µM"},
      {"measurement": "TGI", "setting": "NCI/ADR-RES ovarian", "result": 12.6, "unit": "µM"},
      {"measurement": "GI50", "setting": "SK-OV-3 ovarian", "result": 6.38, "unit": "µM"},
      {"measurement": "TGI", "setting": "SK-OV-3 ovarian", "result": 12.9, "unit": "µM"}
    ]}
  ]
}
